The results in this text go back to patent US7223793B2, “Phenolic acid derivatives and composition for preventing or treating blood lipid level-related diseases comprising the same” (Bionutrigen Co., Ltd., priority 2001, dated 2007).

Assay [1] relates to ACAT. The experiment in a line: ACAT activity in liver microsomes of treated rats (Experimental Example 6, Step 3). It is filed as in vivo, rat. The following applies: liver microsomes of rats fed 6 weeks; for ACAT activity: average; for ACAT activity inhibition: relative to control group. As to the method: 1 g of the liver tissue taken from each sacrificed rat of Step 1 was homogenized in 5 ml of the first homogenization medium {0.1 M KH2PO4(pH 7.4), 0.1 mM EDTA and 10 mM β-mercaptoethanol}. The homogenate was centrifuged at 3,000×g for 15 minutes at 4° C. and the supernatant thus obtained was put into a tube and centrifuged at 15,000×g for 15 minutes at 4° C. to obtain a supernatant. The resulting supernatant was put into a 5 mL ultracentrifuge tube (Beckman) and centrifuged at 100,000×g for 1 hour at 4° C. The supernatant was removed off and pellets thus obtained were suspended in 3 mL of the first homogenization medium and centrifuged at 100,000×g for 1 hour at 4° C. The resulting supernatant was removed off and pellets thus obtained were suspended in 1 ml of the first homogenization medium. The resulting suspension was stored in a deep freezer.
6.67 μl of 1 mg/ml cholesterol solution in acetone was mixed with 6 μl of 10% Triton WR-1339 (Sigma Co.) in acetone. Acetone was removed from the mixture by evaporation under a nitrogen flow. To the resulting mixture, distilled water was added to adjust the concentration of cholesterol to 300 mg/10 ml. 10 μl of the resulting aqueous cholesterol solution was mixed with 10 μl of 1 M KH2PO4 (pH 7.4), 5 μl of 0.6 mM bovine serum albumin (BSA), 10 μl of the microsome solution obtained as above and 55 μl of distilled water (total 90 μl). The mixture was pre-incubated in a water bath at 37° C. for 30 minutes.
10 μl of oleyl-CoA solution […] prepared by mixing radiolabelled oleyl-CoA with oleyl-CoA was added to the pre-incubated mixture and the resulting mixture was incubated in a water bath at 37° C. for 30 minutes. 500 μl of isopropanol:heptane mixture (4:1 (v/v)), 300 μl of heptane and 200 μl of 0.1 M KH2PO4 (pH 7.4) were added to the mixture. The mixture was mixed vigorously using a vortex mixer and then allowed to stand at room temperature for 2 minutes.
200 μl of the resulting supernatant was put in a scintillation bottle and 4 mL of scintillation fluid (Lumac) was added thereto. The mixture was assayed for radioactivity with a scintillation counter. ACAT activity was calculated from the measured radioactivity, which was used to determine the ACAT activity inhibition (%).
A general note: Microsomes from liver hold many membrane-bound enzymes, among them those of drug oxidation.

The subject of assay [2] is New Zealand White rabbits. Nature of the assay: Abnormal fat-containing cells in liver of cholesterol-fed rabbits (Experimental Example 3). It is filed as in vivo, rabbit. The following applies: 1% cholesterol diet, 8 weeks; for Microscopic observation of liver cells (fatty liver): FIGS. 2a-2c; for Grade of proportion of abnormal fat-containing cells in the liver lobules around the central vein: grades 1+(0-25%), 2+(26-50%), 3+(51-75), 4+(76-100%), lovastatin 1 mg/kg or BN30028 0.05 wt %. As to the method:
Thereafter, a piece of each organ was fixed in 10% neutral formalin for at least 24 hours. The fixed organ piece was washed sufficiently with tap water, dehydrated stepwise with 70%, 80%, 90% and 100% ethanol and, then, embedded in a paraffin by employing SHANDON, Histocentre 2, USA. The embedded organ piece was sectioned in a thickness of 4 μm with a microtome (LEICA, RM2045, Germany) and stained with H & E (hematoxylin and eosin). The stained organ specimen was made transparent with xylene, mounted with permount, and then observed under a microscope.
In order to quantitatively evaluate the effects of feeding a high cholesterol diet with test substances on liver tissues, the liver specimens prepared in step 3 of the Experimental Example 3 were observed under a microscope with referring to the procedure described by Fogt F. et al. (Fogt F. and Nanji A., Toxicology and Applied Pharmacology, 136, 87-93, 1996) and the procedure described by Keegan et al. (Keegan A., et al., Journal of Hepatology 23: 591-600, 1995). The specimens were classified into for grades: 1+(0-25%), 2+(26-50%), 3+(51-75) and 4+(76-100%) according to the proportion of abnormal fat-containing cells in the liver lobules around the central vein. The significant differences between the test groups were tested by student t-test using Microsoft excel (version 7.0) program

For assay [3], the system named is Sprague-Dawley rats. Nature of the assay: Effect on blood lipid level in rats fed high-cholesterol diet (Experimental Example 1). Conditions: rats on 1% cholesterol diet, 5 weeks; for Atherogenic index (AI): (total cholesterol − HDL cholesterol)/HDL cholesterol; for HDL-cholesterol/total cholesterol / HDL-cholesterol / Total cholesterol / Triglyceride: plasma, 0.02% lovastatin or 0.046% BN30028 in diet; for HDL-cholesterol / Total cholesterol / Triglyceride: average ± standard deviation. In kind it is in vivo, rat. An excerpt:
30 of 4-week-old male white Sprague-Dawley rats (Bio Genomics Inc., Korea), each weighing about […], were divided into three groups by a randomized block design. The rats of the three groups were fed with three different high-cholesterol diets, i.e., AIN-76 laboratory animal diets (TEKLAD premier Co., Madison, Wis., U.S.A.) containing 1% cholesterol (Control group), 1% cholesterol plus 0.02% lovastatin (Choongwae Pharma. Corp., Korea) and 1% cholesterol plus 0.046% BN30028, respectively, as shown in Table I.
The rats were allowed free access to the specified diets and water for 5 weeks and the ingestion amounts were recorded daily. The rats were weighed every 5 days, and then the record was analyzed.
Blood samples were taken from vena hypogastrica of the rats of the three dietary groups raised in Step 1 and centrifuged to separate plasma. The total cholesterol level was measured by using a diagnosis kit purchased from Sigma (USA), Cat. No.: C0534, applying the method of Allain et al. (Allain et al., Clin. Chem., 20, 470-475 (1974)). The HDL fraction was separated by using a kit purchased from Sigma, Cat. No.: 352-1 applying the heparin-manganese precipitation method (Waenic R. G. and Albers J. J., J Lipid Res., 19, 65-76 (1978)) and the HDL-cholesterol level was measured by using a kit purchased from Sigma, Cat. No.: C9908. The triglyceride level was measured using a kit purchased from Sigma, Cat. No.: 336-10) applying the lipase-glycerol phosphate oxidase method (McGowan, M. W. et al., Clin. Chem., 29, 538-542(1983)). All the data are expressed by average±standard deviation.

In assay [1], `COC(=O)C(CO)NC(=O)CCc1ccc(O)c(O)c1` (stereo not drawn) [BN30063, 2-[3-(3,4-dihydroxyphenyl)propionylamino]-3-hydroxy propionic acid methyl ester] gave an ACAT activity of 186.56 pmol/minute/mg protein and an ACAT activity inhibition of 0%.

With `COC(=O)C(Cc1ccccc1)NC(=O)CCc1ccc(O)c(O)c1` (stereo not drawn) [BN30028, 2-[3-(3,4-dihydroxyphenyl)propionylamino]-3-phenyl propionic acid methyl ester], in assay [2], the “Microscopic observation of liver cells (fatty liver)” value is “almost all liver cells of the rabbits administered with BN30028 are of a normal shape” and the “Grade of proportion of abnormal fat-containing cells in the liver lobules around the central vein” value is on record as 3.57 ± 0.35. The “Proportion of fat-modified cells compared to control” value in assay [2] (p<0.05) is “significantly reduced”. In addition, in assay [3], the “Atherogenic index (AI)” value is recorded as 1.84 ± 0.2, the HDL-cholesterol/total cholesterol is 35.1 ± 0.6%, the HDL-cholesterol stood at 25.6 ± 0.6 mg/dL and the Total cholesterol is recorded as 72.8 ± 3.7 mg/dL. Further, in assay [3], the Triglyceride was determined as 47.6 ± 1.6 mg/dL, the “Reduction of total plasma cholesterol level as compared to the control group” value stood at 12% and the “Reduction of triglyceride as compared to the control group” value came out at 15%.

Regarding `CC[C@H](C)C(=O)O[C@H]1C[C@@H](C)C=C2C=C[C@H](C)[C@H](CC[C@@H]3C[C@@H](O)CC(=O)O3)[C@H]21` [Lovastatin, reference compound], in assay [1], the ACAT activity turned out to be 166.66 pmol/minute/mg protein and the ACAT activity inhibition came out at 10.46%. For the same compound, in assay [2], the “Microscopic observation of liver cells (fatty liver)” value is “many cells containing excessive fat were observed around the central vein” and the “Grade of proportion of abnormal fat-containing cells in the liver lobules around the central vein” value came to 3.97 ± 0.15. For the same compound, in assay [3], the “Atherogenic index (AI)” value was determined as 2.3 ± 0.2, the HDL-cholesterol/total cholesterol is recorded as 30.2 ± 0.5%, the HDL-cholesterol stood at 23.4 ± 0.4 mg/dL and the Total cholesterol is recorded as 77.4 ± 1.8 mg/dL. Moreover, in assay [3], the Triglyceride was 69.0 ± 4.7 mg/dL, the “Increase of triglyceride as compared to the control group” value was 25% and the “Reduction of total plasma cholesterol level as compared to the control group” value is 6%.

`CC(C)CC(NC(=O)CCc1ccc(O)c(O)c1)C(=O)O` (stereo not drawn) [BN30064, 2-[3-(3,4-dihydroxyphenyl)propionylamino]-4-methyl pentanoic acid]: in assay [1], the ACAT activity was determined as 152.49 pmol/minute/mg protein and the ACAT activity inhibition worked out at 18.07%.

In assay [1], `O=C(O)CC(NC(=O)CCc1ccc(O)c(O)c1)C(=O)O` (stereo not drawn) [BN30067, 2-[3-(3,4-dihydroxyphenyl)propionylamino]-succinic acid] had an ACAT activity of 160.01 pmol/minute/mg protein and an ACAT activity inhibition of 14.03%.
